Each block holds one compound with its values, some of them ahead of it. The source made the active and inactive calls. The calls are words filed in the database; no cut-off is given here.
Legend:
[1] = biological target: Glycogen synthase kinase-3 beta (Homo sapiens) (UniProt P49841); assay: Inhibition of GSK3beta at 10 uM
COLO 205 = assay: Cytotoxicity against human COLO205 cells after 72 hrs by MTS assay; settings: COLO 205, 72 h
[2] = Inhibition of cytochrome P450 at 10 uM; type: ADME
[3] = Oral bioavailability in rat at 5 mg/kg; type: ADME, organism-based; settings: in vivo
[4] = biological target: Angiopoietin-1 receptor (Homo sapiens) (UniProt Q02763); assay: Inhibition of Tie2 at 10 uM
[5] = Half life in rat liver microsomes; type: ADME, Microsome
[6] = Half life in human liver microsomes; type: ADME, Microsome
[7] = biological target: Platelet-derived growth factor receptor beta (Homo sapiens) (UniProt P09619); assay: Inhibition of PDGFRbeta at 10 uM
[8] = biological target: 3-phosphoinositide-dependent protein kinase 1 (Homo sapiens) (UniProt O15530); assay: Inhibition of PDK1 at 10 uM
A-375 = assay: Cytotoxicity against human A375 cells after 72 hrs by MTS assay; settings: A-375, 72 h
[9] = biological target: Hepatocyte growth factor receptor (Homo sapiens) (UniProt P08581); assay: Inhibition of cMET at 10 uM
[10] = biological target: RAF proto-oncogene serine/threonine-protein kinase (Homo sapiens) (UniProt P04049); assay: Inhibition of c-RAF at 10 uM
Rattus norvegicus = assay: Dose normalized AUC in rat at 1 mg/kg, iv and 5 mg/kg, po; type: ADME, organism-based; settings: in vivo
[11] = biological target: Mitogen-activated protein kinase 14 (Homo sapiens) (UniProt Q16539); assay: Inhibition of p38alpha at 10 uM
[12] = biological target: Proto-oncogene tyrosine-protein kinase Src (Homo sapiens) (UniProt P12931); assay: Inhibition of cSRC at 10 uM
[13] = biological target: Tyrosine-protein kinase ABL1 (Homo sapiens) (UniProt P00519); assay: Inhibition of ABL1 at 10 uM
[14] = biological target: Epidermal growth factor receptor (Homo sapiens) (UniProt P00533); assay: Inhibition of EGFR at 10 uM
[15] = biological target: Tyrosine-protein kinase SYK (Homo sapiens) (UniProt P43405); assay: Inhibition of Syk at 10 uM
[16] = Clearance in rat at 1 mg/kg, iv and 5 mg/kg, po; type: ADME, organism-based; settings: in vivo
[17] = biological target: RAC-gamma serine/threonine-protein kinase (Homo sapiens) (UniProt Q9Y243); assay: Inhibition of AKT3 at 10 uM
[18] = biological target: Cyclin-dependent kinase 2/cyclin A (Homo sapiens) (UniProt P24941+P20248+P78396); assay: Inhibition of CDK2/cyclin A at 10 uM; type: protein-complex assay
[19] = biological target: Calcium/calmodulin-dependent protein kinase type 1D (Homo sapiens) (UniProt Q8IU85); assay: Inhibition of CAMK1delta at 10 uM
[20] = biological target: Dual specificity mitogen-activated protein kinase kinase 1 (Homo sapiens, UniProt Q02750); assay: Inhibition of MEK1-mediated ERK1 phosphorylation using IPTTPITTYFFFK-5FAM-COOH as substrate by fluorescent polarization assay
[21] = biological target: Insulin receptor (Homo sapiens) (UniProt P06213); assay: Inhibition of IR at 10 uM
[22] = Volume of distribution at steady state in rat at 1 mg/kg, iv and 5 mg/kg, po; type: ADME, organism-based; settings: in vivo, read-out: Vdss
[23] = biological target: T1, Tyrosine-protein kinase JAK3 (Homo sapiens) (UniProt P52333); assay: Inhibition of JAK3 at 10 uM
T1 sequence (whole entry): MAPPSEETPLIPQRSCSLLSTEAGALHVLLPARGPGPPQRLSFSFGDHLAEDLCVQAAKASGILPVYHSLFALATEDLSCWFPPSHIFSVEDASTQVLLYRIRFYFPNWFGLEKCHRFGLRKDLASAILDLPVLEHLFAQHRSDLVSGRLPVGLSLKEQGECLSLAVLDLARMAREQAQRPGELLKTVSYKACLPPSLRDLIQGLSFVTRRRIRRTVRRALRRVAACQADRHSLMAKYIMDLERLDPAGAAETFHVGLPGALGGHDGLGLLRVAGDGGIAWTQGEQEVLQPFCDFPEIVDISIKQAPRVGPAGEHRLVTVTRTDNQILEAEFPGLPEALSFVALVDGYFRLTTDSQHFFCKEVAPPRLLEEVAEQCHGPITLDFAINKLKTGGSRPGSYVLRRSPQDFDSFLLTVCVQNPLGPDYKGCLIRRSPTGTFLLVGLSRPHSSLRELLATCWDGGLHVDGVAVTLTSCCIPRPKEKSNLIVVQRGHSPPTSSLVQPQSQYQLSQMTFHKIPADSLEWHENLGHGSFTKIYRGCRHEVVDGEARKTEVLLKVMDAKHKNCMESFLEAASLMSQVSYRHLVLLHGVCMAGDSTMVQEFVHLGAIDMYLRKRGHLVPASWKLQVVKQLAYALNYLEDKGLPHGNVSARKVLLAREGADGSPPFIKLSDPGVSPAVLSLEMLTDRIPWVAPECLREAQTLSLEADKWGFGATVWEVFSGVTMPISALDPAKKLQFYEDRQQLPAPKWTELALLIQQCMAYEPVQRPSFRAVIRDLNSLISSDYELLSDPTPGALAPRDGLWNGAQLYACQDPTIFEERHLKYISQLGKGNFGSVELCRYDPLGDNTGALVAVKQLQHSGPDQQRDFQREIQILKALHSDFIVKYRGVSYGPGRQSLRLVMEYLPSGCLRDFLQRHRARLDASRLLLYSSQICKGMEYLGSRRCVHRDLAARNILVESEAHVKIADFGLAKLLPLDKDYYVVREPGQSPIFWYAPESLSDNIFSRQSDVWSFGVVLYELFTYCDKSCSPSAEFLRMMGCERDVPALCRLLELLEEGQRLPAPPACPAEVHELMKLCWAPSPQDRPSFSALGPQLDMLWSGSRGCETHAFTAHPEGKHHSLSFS

[24] = biological target: Protein kinase C alpha type (Homo sapiens) (UniProt P17252); assay: Inhibition of PKCalpha at 10 uM
[25] = biological target: Serine/threonine-protein kinase PLK3 (Homo sapiens) (UniProt Q9H4B4); assay: Inhibition of PLK3 at 10 uM

Sequence of 3-phosphoinositide-dependent protein kinase 1 (Homo sapiens) (O15530 whole entry, looked up): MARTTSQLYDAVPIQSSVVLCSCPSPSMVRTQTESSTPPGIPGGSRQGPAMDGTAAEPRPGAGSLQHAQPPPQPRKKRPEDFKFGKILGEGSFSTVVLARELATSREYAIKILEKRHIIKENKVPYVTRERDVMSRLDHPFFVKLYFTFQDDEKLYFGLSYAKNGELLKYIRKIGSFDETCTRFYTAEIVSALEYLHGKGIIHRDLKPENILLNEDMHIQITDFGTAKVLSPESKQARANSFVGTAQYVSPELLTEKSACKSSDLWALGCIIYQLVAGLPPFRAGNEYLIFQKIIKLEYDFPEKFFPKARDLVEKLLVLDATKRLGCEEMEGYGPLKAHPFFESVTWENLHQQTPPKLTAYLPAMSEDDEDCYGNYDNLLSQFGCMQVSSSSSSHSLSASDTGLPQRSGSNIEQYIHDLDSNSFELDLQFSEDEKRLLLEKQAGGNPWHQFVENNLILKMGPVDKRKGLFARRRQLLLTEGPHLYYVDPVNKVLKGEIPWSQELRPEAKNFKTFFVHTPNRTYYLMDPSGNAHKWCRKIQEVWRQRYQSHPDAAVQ
Sequence of Tyrosine-protein kinase ABL1 (Homo sapiens) (P00519 whole entry): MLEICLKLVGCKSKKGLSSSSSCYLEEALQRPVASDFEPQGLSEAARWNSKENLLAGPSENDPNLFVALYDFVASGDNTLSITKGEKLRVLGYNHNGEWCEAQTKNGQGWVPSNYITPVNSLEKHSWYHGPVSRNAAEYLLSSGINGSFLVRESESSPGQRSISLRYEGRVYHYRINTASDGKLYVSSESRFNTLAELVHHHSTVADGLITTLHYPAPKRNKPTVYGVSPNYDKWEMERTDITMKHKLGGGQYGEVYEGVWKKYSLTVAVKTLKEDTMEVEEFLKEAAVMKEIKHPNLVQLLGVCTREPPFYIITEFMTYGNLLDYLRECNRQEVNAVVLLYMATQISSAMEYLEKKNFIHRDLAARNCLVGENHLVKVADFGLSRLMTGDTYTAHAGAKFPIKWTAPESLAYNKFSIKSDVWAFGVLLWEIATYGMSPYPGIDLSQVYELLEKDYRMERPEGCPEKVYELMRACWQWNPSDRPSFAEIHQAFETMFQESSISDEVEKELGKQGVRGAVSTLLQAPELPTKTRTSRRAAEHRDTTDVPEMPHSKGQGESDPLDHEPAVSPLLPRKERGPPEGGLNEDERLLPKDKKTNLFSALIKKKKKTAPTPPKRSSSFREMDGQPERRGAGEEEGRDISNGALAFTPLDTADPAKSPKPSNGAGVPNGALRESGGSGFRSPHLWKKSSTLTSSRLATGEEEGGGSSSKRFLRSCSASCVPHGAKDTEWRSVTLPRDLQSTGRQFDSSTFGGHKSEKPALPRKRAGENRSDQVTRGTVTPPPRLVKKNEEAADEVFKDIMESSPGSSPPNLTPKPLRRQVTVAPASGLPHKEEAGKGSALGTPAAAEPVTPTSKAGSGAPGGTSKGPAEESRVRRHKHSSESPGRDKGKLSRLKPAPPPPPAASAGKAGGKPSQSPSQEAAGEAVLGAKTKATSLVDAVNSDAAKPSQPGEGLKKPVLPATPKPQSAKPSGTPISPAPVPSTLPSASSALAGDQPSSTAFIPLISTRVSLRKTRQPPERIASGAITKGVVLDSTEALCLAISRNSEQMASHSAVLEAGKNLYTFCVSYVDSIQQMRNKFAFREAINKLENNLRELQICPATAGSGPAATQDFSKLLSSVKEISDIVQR
Sequence of Insulin receptor (Homo sapiens) (P06213 28-758 limits assumed): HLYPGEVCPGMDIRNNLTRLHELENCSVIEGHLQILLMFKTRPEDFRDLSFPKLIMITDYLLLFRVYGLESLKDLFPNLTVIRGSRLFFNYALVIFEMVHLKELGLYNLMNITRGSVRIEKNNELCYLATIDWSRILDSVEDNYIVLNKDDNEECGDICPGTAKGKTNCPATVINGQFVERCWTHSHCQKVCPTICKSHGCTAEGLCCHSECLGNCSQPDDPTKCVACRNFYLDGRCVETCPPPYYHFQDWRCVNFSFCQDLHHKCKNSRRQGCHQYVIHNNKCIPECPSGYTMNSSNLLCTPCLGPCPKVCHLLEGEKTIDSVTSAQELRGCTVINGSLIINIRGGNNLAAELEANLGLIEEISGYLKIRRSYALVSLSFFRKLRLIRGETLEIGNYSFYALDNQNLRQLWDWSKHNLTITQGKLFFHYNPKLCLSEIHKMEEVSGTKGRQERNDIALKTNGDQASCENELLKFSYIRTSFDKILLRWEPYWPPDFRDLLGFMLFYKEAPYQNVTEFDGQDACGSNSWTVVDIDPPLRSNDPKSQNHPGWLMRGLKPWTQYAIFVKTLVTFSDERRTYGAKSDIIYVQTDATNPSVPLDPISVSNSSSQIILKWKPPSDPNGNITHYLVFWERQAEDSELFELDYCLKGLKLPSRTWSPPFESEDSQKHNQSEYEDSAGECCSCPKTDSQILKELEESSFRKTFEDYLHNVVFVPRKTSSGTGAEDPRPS
Sequence of Insulin receptor (Homo sapiens) (P06213 763-1382 limits assumed): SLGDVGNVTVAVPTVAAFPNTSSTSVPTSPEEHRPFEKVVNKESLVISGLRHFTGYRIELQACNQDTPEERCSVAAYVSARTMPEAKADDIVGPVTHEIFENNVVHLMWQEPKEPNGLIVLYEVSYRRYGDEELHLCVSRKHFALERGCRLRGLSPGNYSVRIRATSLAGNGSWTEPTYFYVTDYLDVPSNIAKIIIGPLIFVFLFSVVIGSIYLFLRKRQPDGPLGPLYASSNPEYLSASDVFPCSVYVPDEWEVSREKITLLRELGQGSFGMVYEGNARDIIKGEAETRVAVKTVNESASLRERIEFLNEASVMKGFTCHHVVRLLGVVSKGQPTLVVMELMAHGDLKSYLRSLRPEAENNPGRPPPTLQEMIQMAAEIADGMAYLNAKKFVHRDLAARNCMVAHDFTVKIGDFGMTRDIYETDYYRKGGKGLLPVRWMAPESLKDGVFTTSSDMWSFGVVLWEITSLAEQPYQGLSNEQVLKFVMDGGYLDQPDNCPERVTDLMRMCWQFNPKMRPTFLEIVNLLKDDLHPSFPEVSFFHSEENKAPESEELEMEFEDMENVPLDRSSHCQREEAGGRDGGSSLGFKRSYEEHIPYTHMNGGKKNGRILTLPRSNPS
Sequence of RAC-gamma serine/threonine-protein kinase (Homo sapiens) (Q9Y243 whole entry): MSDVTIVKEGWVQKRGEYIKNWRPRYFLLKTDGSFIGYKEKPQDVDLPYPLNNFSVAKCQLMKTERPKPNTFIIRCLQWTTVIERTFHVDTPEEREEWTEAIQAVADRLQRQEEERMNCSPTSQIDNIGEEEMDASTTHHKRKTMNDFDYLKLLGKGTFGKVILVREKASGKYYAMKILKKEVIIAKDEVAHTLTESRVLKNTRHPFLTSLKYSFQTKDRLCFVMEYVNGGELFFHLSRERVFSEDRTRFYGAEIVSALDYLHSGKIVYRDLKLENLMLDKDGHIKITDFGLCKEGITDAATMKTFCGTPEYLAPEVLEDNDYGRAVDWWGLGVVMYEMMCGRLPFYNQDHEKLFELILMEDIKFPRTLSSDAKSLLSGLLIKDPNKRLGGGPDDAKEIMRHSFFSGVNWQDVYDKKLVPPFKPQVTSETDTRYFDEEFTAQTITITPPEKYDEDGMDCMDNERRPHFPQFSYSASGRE
Sequence of Dual specificity mitogen-activated protein kinase kinase 1 (Q02750 whole entry): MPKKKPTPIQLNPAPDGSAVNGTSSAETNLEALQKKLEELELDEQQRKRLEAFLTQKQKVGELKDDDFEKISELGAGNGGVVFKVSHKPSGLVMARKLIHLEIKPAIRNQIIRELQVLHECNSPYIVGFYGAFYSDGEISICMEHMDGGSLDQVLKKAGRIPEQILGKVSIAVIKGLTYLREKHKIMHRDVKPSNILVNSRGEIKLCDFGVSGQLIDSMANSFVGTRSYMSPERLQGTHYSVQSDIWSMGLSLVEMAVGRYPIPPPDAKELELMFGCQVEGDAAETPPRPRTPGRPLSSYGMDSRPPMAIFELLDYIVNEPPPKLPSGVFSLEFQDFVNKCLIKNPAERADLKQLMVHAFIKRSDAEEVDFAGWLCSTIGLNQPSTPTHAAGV
Sequence of Mitogen-activated protein kinase 14 (Homo sapiens) (Q16539 whole entry): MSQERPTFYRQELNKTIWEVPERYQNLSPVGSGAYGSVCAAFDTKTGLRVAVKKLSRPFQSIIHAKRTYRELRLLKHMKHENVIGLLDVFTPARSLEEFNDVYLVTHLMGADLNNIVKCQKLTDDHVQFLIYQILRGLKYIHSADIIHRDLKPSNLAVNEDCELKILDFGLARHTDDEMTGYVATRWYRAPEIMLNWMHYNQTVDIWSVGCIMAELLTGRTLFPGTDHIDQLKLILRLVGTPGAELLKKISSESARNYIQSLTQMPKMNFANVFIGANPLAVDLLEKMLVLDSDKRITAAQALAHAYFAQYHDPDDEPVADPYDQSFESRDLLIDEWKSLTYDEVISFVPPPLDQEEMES

Compound: C#Cc1ccc(Nc2c(C(=O)NOC[C@H](O)CO)c3c(n2C)C(=O)CCC3)c(F)c1
EC50 (COLO 205): 62 nM | half-life [5]: > 3.33 h | half-life [6]: > 3.33 h | EC50 (A-375): 72 nM | IC50 [20]: 41 nM

Compound: C#Cc1ccc(Nc2c(C(=O)NOCCO)c3n(c(=O)c2F)CCC3)c(F)c1
EC50 (COLO 205): 12 nM | half-life [5]: > 3.33 h | half-life [6]: 2.13 h | EC50 (A-375): 33 nM | IC50 [20]: 69 nM

Compound: C#Cc1ccc(Nc2c(C(=O)NOCCO)c3c(n2C)C(=O)CC3)c(F)c1
inhibition [1]: inactive | EC50 (COLO 205): 17 nM | inhibition (INH) [2]: Not Active | bioavailability [3]: 51% | inhibition [4]: inactive | half-life [5]: 2.5 h | half-life [6]: 1.78 h | inhibition [7]: inactive | inhibition [8]: inactive | EC50 (A-375): 34 nM | inhibition [9]: inactive | inhibition [10]: inactive | AUC/dose (Rattus norvegicus): 512 ng·h/mL/mg/kg | inhibition [11]: inactive | inhibition [12]: inactive | inhibition [13]: inactive | inhibition [14]: inactive | inhibition [15]: inactive | clearance [16]: 15.6 mL/min/kg | inhibition [17]: inactive | inhibition [18]: inactive | inhibition [19]: inactive | IC50 [20]: 36 nM | inhibition [21]: inactive | Vd [22]: 1.19 L/kg | inhibition [23]: inactive | inhibition [24]: inactive | inhibition [25]: inactive

Compound: Cn1c(Nc2ccc(Br)cc2F)c(C(=O)NOC[C@H](O)CO)c2c1C(=O)CCC2
EC50 (COLO 205): 58 nM | half-life [5]: 1.42 h | half-life [6]: 1.57 h | EC50 (A-375): 72 nM | IC50 [20]: 52 nM

Compound: Cn1c(Nc2ccc(I)cc2F)c(C(=O)NOC[C@@H](O)CO)c2c1C(=O)CC2
EC50 (COLO 205): 5 nM | half-life [5]: 0.9 h | half-life [6]: 1.07 h | EC50 (A-375): 7 nM | IC50 [20]: 11 nM

Compound: Cn1c(Nc2ccc(I)cc2F)c(C(=O)NOC[C@@H](O)CO)c2c1C(=O)CCC2
EC50 (COLO 205): 2 nM | half-life [5]: 0.6 h | half-life [6]: 0.367 h | EC50 (A-375): 2.5 nM | IC50 [20]: 17 nM

Compound: CC(=O)c1cc(C(=O)NOCCO)c(Nc2ccc(I)cc2F)n1C
EC50 (COLO 205): 12 nM | EC50 (A-375): 14 nM | AUC/dose (Rattus norvegicus): 144 ng·h/mL/mg/kg

Compound: Cn1c(Nc2ccc(I)cc2F)c(C(=O)NOC[C@H](O)CO)c2c1C(=O)CC2
EC50 (COLO 205): 9 nM | half-life [5]: 0.9 h | half-life [6]: 1.43 h | EC50 (A-375): 13 nM | IC50 [20]: 54 nM

Compound: Cn1c(Nc2ccc(I)cc2F)c(C(=O)NOCCO)c2c1C(=O)CC2
EC50 (COLO 205): 2 nM | half-life [5]: 0.233 h | half-life [6]: 0.167 h | EC50 (A-375): 4 nM

Compound: Cn1c(Nc2ccc(Br)cc2F)c(C(=O)NOCCO)c2c1C(=O)CCC2
EC50 (COLO 205): 34 nM | half-life [5]: 0.333 h | half-life [6]: 0.417 h | EC50 (A-375): 31 nM | IC50 [20]: 18 nM

Compound: Cn1c(Nc2ccc(Br)cc2F)c(C(=O)NOC[C@@H](O)CO)c2c1C(=O)CCC2
EC50 (COLO 205): 53 nM | half-life [5]: 1.17 h | half-life [6]: 1.27 h | EC50 (A-375): 76 nM | IC50 [20]: 76 nM

Compound: Cn1c(Nc2ccc(I)cc2F)c(C(=O)NOCCO)c2c1C(=O)CCC2
EC50 (COLO 205): 1 nM | half-life [5]: 0.0917 h | half-life [6]: 0.0617 h | EC50 (A-375): 1 nM | IC50 [20]: 14 nM

Continued, in another order:

inhibition [1]: inactive | inhibition (INH) [2]: Not Active | bioavailability [3]: 21% | inhibition [4]: inactive | half-life [5]: 2.07 h | half-life [6]: > 3.33 h | inhibition [7]: inactive | inhibition [8]: inactive | inhibition [9]: inactive | inhibition [10]: inactive | AUC/dose (Rattus norvegicus): 262 ng·h/mL/mg/kg | inhibition [11]: inactive | inhibition [12]: inactive | inhibition [13]: inactive | inhibition [14]: inactive | inhibition [15]: inactive | clearance [16]: 12.9 mL/min/kg | inhibition [17]: inactive | inhibition [18]: inactive | inhibition [19]: inactive | IC50 [20]: 25 nM | inhibition [21]: inactive | Vd [22]: 0.745 L/kg | inhibition [23]: inactive | inhibition [24]: inactive | inhibition [25]: inactive
Compound: O=C(NOCCO)c1c(Nc2ccc(I)cc2F)c(F)c(=O)n2c1CCC2
EC50 (COLO 205): 1 nM | EC50 (A-375): 3 nM

half-life [5]: > 3.33 h | half-life [6]: > 3.33 h | IC50 [20]: 39 nM
Compound: O=C(NOC[C@H](O)CO)c1c(Nc2ccc(I)cc2F)c(F)c(=O)n2c1CCC2
EC50 (COLO 205): 27 nM | EC50 (A-375): 69 nM

half-life [5]: 0.683 h | half-life [6]: 1.85 h | IC50 [20]: 57 nM
Compound: O=C(NOCCO)c1c(Nc2ccc(I)cc2F)c(F)c(=O)n2c1CCCC2
EC50 (COLO 205): 12 nM | EC50 (A-375): 30 nM

inhibition [1]: inactive | inhibition (INH) [2]: Not Active | inhibition [4]: inactive | half-life [5]: > 3.33 h | half-life [6]: > 3.33 h | inhibition [7]: inactive | inhibition [8]: inactive | inhibition [9]: inactive | inhibition [10]: inactive | inhibition [11]: inactive | inhibition [12]: inactive | inhibition [13]: inactive | inhibition [14]: inactive | inhibition [15]: inactive | inhibition [17]: inactive | inhibition [18]: inactive | inhibition [19]: inactive | IC50 [20]: 94 nM | inhibition [21]: inactive | inhibition [23]: inactive | inhibition [24]: inactive | inhibition [25]: inactive
Compound: O=C(NOC[C@@H](O)CO)c1c(Nc2ccc(I)cc2F)c(F)c(=O)n2c1CCC2
EC50 (COLO 205): 44 nM | EC50 (A-375): 139 nM

half-life [5]: 0.9 h | half-life [6]: 0.783 h | IC50 [20]: 109 nM
Compound: O=C(NOCCO)c1c(Nc2ccc(I)cc2F)c(Cl)c(=O)n2c1CCC2
EC50 (COLO 205): 3 nM | EC50 (A-375): 5 nM

half-life [5]: 1.03 h | half-life [6]: 2.23 h
Compound: O=C(NOCCO)c1c(Nc2ccc(I)cc2F)cc(=O)n2c1CCC2
EC50 (COLO 205): 5 nM | EC50 (A-375): 13 nM

Reference: ChEMBL document CHEMBL2010712, “Design and synthesis of orally available MEK inhibitors with potent in vivo antitumor efficacy” (Bioorg Med Chem Lett, 2012)
